This is an account of results in patent publication US11654199B2 (BOLT BIOTHERAPEUTICS, INC., priority 2019, dated 2023).

One test deals with T1, human TLR7 (Homo sapiens, UniProt Q9NYK1).
T1 construct: host or cells: HEK293 reporter cells
T1 sequence (Q9NYK1 27-1049): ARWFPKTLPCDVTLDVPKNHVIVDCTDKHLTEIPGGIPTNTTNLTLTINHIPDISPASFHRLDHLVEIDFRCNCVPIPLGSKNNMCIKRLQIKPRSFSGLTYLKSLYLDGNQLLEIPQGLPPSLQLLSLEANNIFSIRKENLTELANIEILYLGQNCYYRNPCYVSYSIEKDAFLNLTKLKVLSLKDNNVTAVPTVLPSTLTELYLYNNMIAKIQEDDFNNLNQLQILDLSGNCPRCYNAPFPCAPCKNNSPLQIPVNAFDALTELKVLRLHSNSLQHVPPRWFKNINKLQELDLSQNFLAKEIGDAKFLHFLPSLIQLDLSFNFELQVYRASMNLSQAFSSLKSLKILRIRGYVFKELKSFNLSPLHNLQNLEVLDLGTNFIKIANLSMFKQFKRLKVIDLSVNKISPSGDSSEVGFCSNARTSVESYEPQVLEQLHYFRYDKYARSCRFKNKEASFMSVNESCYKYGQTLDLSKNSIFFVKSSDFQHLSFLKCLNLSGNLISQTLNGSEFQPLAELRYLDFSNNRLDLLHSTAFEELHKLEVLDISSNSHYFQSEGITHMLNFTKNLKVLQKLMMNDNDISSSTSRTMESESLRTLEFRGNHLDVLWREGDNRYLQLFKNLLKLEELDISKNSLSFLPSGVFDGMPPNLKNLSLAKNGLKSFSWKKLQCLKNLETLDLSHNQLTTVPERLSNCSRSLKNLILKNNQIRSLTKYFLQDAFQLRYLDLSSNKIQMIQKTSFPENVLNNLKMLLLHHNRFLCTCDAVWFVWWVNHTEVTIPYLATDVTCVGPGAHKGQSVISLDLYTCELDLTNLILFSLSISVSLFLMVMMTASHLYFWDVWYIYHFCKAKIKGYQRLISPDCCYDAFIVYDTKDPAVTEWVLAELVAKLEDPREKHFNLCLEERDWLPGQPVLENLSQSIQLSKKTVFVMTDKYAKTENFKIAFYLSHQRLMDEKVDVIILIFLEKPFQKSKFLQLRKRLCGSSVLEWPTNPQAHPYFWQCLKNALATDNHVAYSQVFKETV
Description: HEK293 NFKB reporter assay, human TLR7. Type of test: cell-based. The following applies: HEK293 NFKB reporter cells expressing human TLR7; read-out: HEK293 hTLR7 EC50. The procedure, abridged:
(§1)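 HEK293 NF-κB reporter cells expressing human TLR7 or TLR8 were seeded at 4×10^4 cells/well in HEK detection medium containing the stimulatory molecules. Reporter activity was read by absorbance at 620-655 nm.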

The target in another test is T2, human TLR8 (Homo sapiens, UniProt Q9NR97).
T2 construct: host or cells: HEK293 reporter cells
T2 sequence (Q9NR97 27-1041): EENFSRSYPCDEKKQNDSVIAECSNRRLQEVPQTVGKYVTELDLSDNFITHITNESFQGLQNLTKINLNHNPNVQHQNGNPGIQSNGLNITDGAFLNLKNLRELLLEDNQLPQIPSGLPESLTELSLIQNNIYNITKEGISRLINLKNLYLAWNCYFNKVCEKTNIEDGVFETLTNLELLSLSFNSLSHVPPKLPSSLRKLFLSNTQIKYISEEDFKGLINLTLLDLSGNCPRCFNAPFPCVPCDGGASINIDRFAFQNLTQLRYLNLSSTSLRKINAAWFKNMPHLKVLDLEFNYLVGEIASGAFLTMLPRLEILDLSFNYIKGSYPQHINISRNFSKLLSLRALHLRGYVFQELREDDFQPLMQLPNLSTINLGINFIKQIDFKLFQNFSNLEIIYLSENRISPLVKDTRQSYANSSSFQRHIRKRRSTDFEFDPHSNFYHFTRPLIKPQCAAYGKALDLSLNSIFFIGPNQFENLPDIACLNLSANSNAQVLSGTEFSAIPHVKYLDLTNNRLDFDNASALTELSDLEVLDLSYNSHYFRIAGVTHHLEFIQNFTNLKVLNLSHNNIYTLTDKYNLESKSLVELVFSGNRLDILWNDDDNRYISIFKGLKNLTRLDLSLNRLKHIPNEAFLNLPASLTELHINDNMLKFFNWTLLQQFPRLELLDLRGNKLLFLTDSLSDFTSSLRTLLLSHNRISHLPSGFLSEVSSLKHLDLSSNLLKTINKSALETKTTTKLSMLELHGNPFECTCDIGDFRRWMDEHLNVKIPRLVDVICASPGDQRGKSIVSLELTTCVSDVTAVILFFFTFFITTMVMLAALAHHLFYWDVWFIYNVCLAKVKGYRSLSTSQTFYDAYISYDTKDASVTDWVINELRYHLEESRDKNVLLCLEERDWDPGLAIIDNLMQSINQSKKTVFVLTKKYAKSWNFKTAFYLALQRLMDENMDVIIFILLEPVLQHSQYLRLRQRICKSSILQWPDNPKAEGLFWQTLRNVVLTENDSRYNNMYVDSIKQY
Description: HEK293 NFKB reporter assay, human TLR8. Type of test: cell-based. Conditions: HEK293 NFKB reporter cells expressing human TLR8; read-out: HEK293 hTLR8 EC50. The procedure, abridged:
as §1

With `CCCN(CCCNC(=O)OC1CCC1)C(=O)C1=Cc2sc(C#CC3CCNCC3)cc2N=C(N)C1` [TAZ-164], the EC50 is 0.476 µM on human TLR7 and 3890 nM at human TLR8.
As for `CCCN(OC(C)C)C(=O)C1=Cc2sc(CC3CN(C(=O)OC(C)(C)C)C3)cc2N=C(N)C1` [TAZ-249], the EC50 on human TLR7 came out at 0.362 µM; on human TLR8 it was 640 nM.
In the case of `CCCN(OCC)C(=O)C1=Cc2sc(CC3CN(C(C)=O)C3)cc2N=C(N)C1` [TAZ-252], the half-maximal effective concentration (EC50) on human TLR7 is 4.45 µM; at human TLR8, 868 nM.
Taken in the same sequence, the figures for `CCCN(CCCNC(=O)NCC)C(=O)C1=Cc2sc(CCCCCNC(=O)OC(C)(C)C)cc2N=C(N)C1` [TAZ-170] were 0.282 µM and 3370 nM.
Taken in the same sequence, the figures for `CCCN(CCC)C(=O)C1=Cc2sc(CN3CCNCC3)cc2N=C(N)C1` [TAZ-44] were 4.53 µM and 593 nM.
Regarding `CCCN(OCC)C(=O)C1=Cc2sc(CCCCCNC(=O)OC(C)(C)C)cc2N=C(N)C1` [TAZ-75], the EC50 was 5.08 µM on human TLR7 and 2030 nM on human TLR8.
Taken in the same sequence, the figures for `CCCN(OCC)C(=O)C1=Cc2sc(CN3CC[C@@H]4[C@H](C3)CN4C(=O)OC(C)(C)C)cc2N=C(N)C1` [TAZ-228] were 3.76 µM and 3240 nM.
Taken in the same sequence, the figures for `CCCN(CCC)C(=O)C1=Cc2sc(CN3CCN(C(=O)OC(C)(C)C)CC3)cc2N=C(N)C1` [TAZ-43] were more than 9 µM and more than 9000 nM.
For the compound `CCCN(Cc1cnc(CN)c(C(F)(F)F)c1)C(=O)C1=Cc2sccc2N=C(N)C1` [TAZ-104], the concentration giving a half-maximal response (EC50) on human TLR7 stood at 3.17 µM; on human TLR8 it was 1440 nM.
Taken in the same sequence, the figures for `CCCN(CCC)C(=O)C1=Cc2sc(C#CCCN)cc2N=C(N)C1` [TAZ-35] were more than 9 µM and 2870 nM.
The like results for `CCCN(CCCNC(=O)OCc1ccccc1)C(=O)C1=Cc2sc(CCCCCNC(=O)OC(C)(C)C)cc2N=C(N)C1` [TAZ-162] were, in that order, 1.24 µM and 1250 nM.
Taken in the same sequence, the figures for `CCCN(CCC)C(=O)C1=Cc2sc(CCCCCNC(=O)CCOC)cc2N=C(N)C1` [TAZ-108] were 3.85 µM and 3470 nM.
As to `CCCN(OCC)C(=O)C1=Cc2sc(-c3cn[nH]c3)cc2N=C(N)C1` [TAZ-221], the EC50 on human TLR7 was 6.12 µM; on human TLR8 it was 6700 nM.
As to `NCc1ccc(CN(CCC(F)(F)F)C(=O)C2=Cc3sccc3N=C(N)C2)cc1` [TAZ-77], the EC50 on human TLR7 was determined as 3.9 µM; on human TLR8 it was 59 nM.
Take `CCCN(OCC)C(=O)C1=Cc2sc(CN3CC4CCC(C3)N4C(=O)OC(C)(C)C)cc2N=C(N)C1` [TAZ-241]: the 50% effective concentration (EC50) came out at 2.81 µM at human TLR7 and 3060 nM at human TLR8.
On to `CCCN(Cc1ccc(CN)c(C(F)(F)F)c1)C(=O)C1=Cc2sccc2N=C(N)C1`, for which the EC50 at human TLR7 amounted to 0.905 µM; on human TLR8, 35 nM.
In the case of `CCCN(CCCNC(=O)OC1CCC1)C(=O)C1=Cc2sc(CNC(=O)Cc3ccccc3)cc2N=C(N)C1` [TAZ-204], the figures for the concentration giving a half-maximal response (EC50) at human TLR7 and at human TLR8 were 2.67 µM and 2550 nM, respectively.
Taken in the same sequence, the figures for `CCCN(CCC)C(=O)C1=Cc2sc(COCCCNC(=O)OC(C)(C)C)cc2N=C(N)C1` [TAZ-66] were 4.42 µM and 4240 nM.
Taken in the same sequence, the figures for `CCON(CCC(F)(F)F)C(=O)C1=Cc2sccc2N=C(N)C1` [TAZ-74] were 4.11 µM and 301 nM.
On to `CCCN(CCC)C(=O)C1=Cc2sc(COCCNC(=O)OC(C)(C)C)cc2N=C(N)C1` [TAZ-80], for which the figures for the 50% effective concentration (EC50) on human TLR7 and at human TLR8 were 4 µM and 3790 nM, respectively.
The like results for `CCCN(CCC)C(=O)C1=Cc2sc(CCCCCN(C)C)cc2N=C(N)C1` [TAZ-102] were, in that order, 0.793 µM and 384 nM.
The like results for `CCCN(OCC)C(=O)C1=Cc2sc(CN3CCC4(CCNC4)CC3)cc2N=C(N)C1` [TAZ-240] were, in that order, 4.25 µM and 5460 nM.
The like results for `CCCN(OCC)C(=O)C1=Cc2sc(CN3CCNCC3)cc2N=C(N)C1` [TAZ-94] were, in that order, 6.2 µM and 101 nM.
`CCCN(OCC)C(=O)C1=Cc2sc(CN3Cc4ccc(NC(=O)CCNC(=O)OC(C)(C)C)cc4C3)cc2N=C(N)C1` [TAZ-202]: the EC50 amounted to 3.68 µM at human TLR7 and 1370 nM on human TLR8.
The like results for `CCCN(OCC)C(=O)C1=Cc2sc(CC3CCNCC3)cc2N=C(N)C1` [TAZ-178] were, in that order, 0.714 µM and 124 nM.
For the compound `CCCN(OCC)C(=O)C1=Cc2sc(CCC3(O)CNC3)cc2N=C(N)C1` [TAZ-200], the figures for the EC50 on human TLR7 and on human TLR8 were 2.92 µM and 4070 nM, respectively.
Taken in the same sequence, the figures for `CCCN(Cc1cnc(CNC(=O)OC(C)(C)C)cn1)C(=O)C1=Cc2sccc2N=C(N)C1` [TAZ-57] were 1.05 µM and 3850 nM.
Taken in the same sequence, the figures for `CCCN(Cc1ccc(CN(C)C)cc1)C(=O)C1=Cc2sccc2N=C(N)C1` [TAZ-87] were 1.94 µM and 214 nM.
Taken in the same sequence, the figures for `CCCN(CCC)C(=O)C1=Cc2sc(C(=O)NCCCNC(=O)OC(C)(C)C)cc2N=C(N)C1` [TAZ-31] were more than 9 µM and more than 9000 nM.
Consider `CCCN(CCCNC(=O)OC1CCC1)C(=O)C1=Cc2sc(CN3Cc4ccc(NC(=O)CCN)cc4C3)cc2N=C(N)C1` [TAZ-189], for which the EC50 at human TLR7 was 5.72 µM; on human TLR8, 3390 nM.
As to `CCCN(CCC)C(=O)C1=Cc2sc(S(=O)(=O)NCCCN)cc2N=C(N)C1` [TAZ-56], the concentration for a half-maximal effect (EC50) was more than 9 µM on human TLR7 and more than 9000 nM at human TLR8.
The like results for `CCCN(C(=O)C1=Cc2sccc2N=C(N)C1)C(C)c1ccc(CN)cc1` (stereo not drawn) [TAZ-88] were, in that order, more than 9 µM and 2270 nM.
Consider `CCCN(OCC)C(=O)C1=Cc2sc(CN3CC4CCC(C3)N4)cc2N=C(N)C1` [TAZ-245], for which the concentration giving a half-maximal response (EC50) at human TLR7 is 5.02 µM; on human TLR8 it was 145 nM.
Taken in the same sequence, the figures for `CCCN(OCC)C(=O)C1=Cc2sc(CN3CCC(N)C3)cc2N=C(N)C1` (stereo not drawn) [TAZ-234] were 3.33 µM and 361 nM.
The like results for `CCCN(OCC)C(=O)C1=Cc2sc(CC3CNC3)cc2N=C(N)C1` [TAZ-183, 5-amino-2-(azetidin-3-ylmethyl)-N-ethoxy-N-propyl-6H-thieno[3,2-b]azepine-7-carboxamide] were, in that order, 3.56 µM and 485 nM.
As to `CCCN(CCC)C(=O)C1=Cc2sc(C#CCCCN)cc2N=C(N)C1` [TAZ-33], the 50% effective concentration (EC50) is more than 9 µM on human TLR7 and more than 9000 nM on human TLR8.
The like results for `CCCN(Cc1ccc(CNC(C)=O)cc1)C(=O)C1=Cc2sccc2N=C(N)C1` [TAZ-45] were, in that order, more than 9 µM and 1780 nM.
On to `CCCN(OCC(F)(F)F)C(=O)C1=Cc2sccc2N=C(N)C1` [TAZ-103], for which the EC50 on human TLR7 was determined as 3.82 µM; at human TLR8, 1380 nM.
In the case of `CCCN(OCC)C(=O)C1=Cc2sc(CCCCCN)cc2N=C(N)C1` [TAZ-76], the figures for the EC50 on human TLR7 and at human TLR8 were 3.44 µM and 1420 nM, respectively.
